Values after ≈ are worked out from the molar mass of the structure shown. Like-named read-outs stand apart in the source and are kept apart here.
Key:
Type in all cases: cell-based
[1] = test system: Staphylococcus aureus ATCC 29213; assay: MIC, broth microdilution, S. aureus ATCC 29213
[2] = test system: Enterococcus faecium ATCC 19434; assay: MIC, E. faecium ATCC 19434; conditions: ATCC19434, Table 2
[3] = test system: human hepatic cell line (HepG2 ATCC HB-8065); assay: Human cell viability assay (CellTiter-Glo), HepG2; conditions: HepG2, 24 h incubation, tested over 1-128 μg/mL, read-out: IC50 values against HepG2
Method: Compounds are assessed for potential non-specific cytotoxic effects against a human hepatic cell line (HepG2 ATCC HB-8065). HepG2 cells are seeded at 20,000 cells/well in 96-well microtitre plates in minimal essential medium (MEM) supplemented with a final concentration of 10% FBS and 1 mM sodium pyruvate. After 24 h compound dilutions are prepared in Dulbecco's minimum essential media (DMEM) supplemented with final concentrations of 0.001% FBS, 0.3% bovine albumin and 0.02% HEPES and added to cells. Compounds are tested in two-fold serial dilutions over a final concentration range of 1-128 μg/mL in a final DMSO concentration of 1% vol/vol. Chlorpromazine is used as a positive control. Cells are incubated with compound at 37° C. and 5% CO2 for a further 24 h, after which time the CellTiter-Glo reagent (Promega) is added. Luminescence is measured on a BMG Omega plate reader. Data are analysed using GraphPad Prism software to determine the concentration of compound that inhibits cell viability by fifty percent (IC50).

[4] = test system: Haemophilus influenzae ATCC 49247; assay: MIC, H. influenzae ATCC 49247; conditions: ATCC49247, Table 4
[5] = test system: Escherichia coli ATCC 25922; assay: MIC, broth microdilution, E. coli ATCC 25922; conditions: ATCC25922, Table 1, wild type strain
[6] = ATCC29213, Table 1, wild type strain, read-out: MIC S. aureus ATCC 29213
[7] = ATCC 29213 / MSSA, Table 2, read-out: MIC S. aureus (MSSA) ATCC 29213 CLSI control strain

Row | Compound | MIC [1, 6] [µg/mL] | MIC [1, 7] [µg/mL] | MIC [2] [µg/mL] | IC50 [3] [µg/mL] | MIC [4] [µg/mL] | MIC [5] [µg/mL]
1 | Cc1nc2c(=O)n(C3CC3)c3c(C)c(-c4cnn(C5CN(C(=O)OC(C)(C)C)C5)c4)ccc3c2o1 [Compound 11, tert-butyl 3-[4-(5-cyclopropyl-2,6-dimethyl-4-oxo-oxazolo[4,5-c]quinolin-7-yl)pyrazol-1-yl]azetidine-1-carboxylate] | 1 to 10 (≈ 2.1 to 21 µM) | 1 to 10 (≈ 2.1 to 21 µM) | > 100 | > 100 | 10 to 100 (≈ 21 to 210 µM) | > 100
2 | Cc1nc2c(=O)n(C3CC3)c3c(C)c(-c4cc(F)c(CO)cc4F)ccc3c2o1 [Compound 34, 5-cyclopropyl-7-[2,5-difluoro-4-(hydroxymethyl)phenyl]-2,6-dimethyl-oxazolo[4,5-c]quinolin-4-one] | < 1 | < 1 | > 100 | > 100 | 1 to 10 (≈ 2.52 to 25.2 µM) | 1 to 10 (≈ 2.52 to 25.2 µM)
3 | Cc1c(-c2cnc(N(C)C)nc2)ccc2c3ocnc3c(=O)n(C3CC3)c12 [Compound 41, 5-cyclopropyl-7-[2-(dimethylamino)pyrimidin-5-yl]-6-methyl-oxazolo[4,5-c]quinolin-4-one] | 1 to 10 (≈ 2.77 to 27.7 µM) | 1 to 10 (≈ 2.77 to 27.7 µM) | > 100 | 10 to 100 (≈ 27.7 to 277 µM) | 10 to 100 (≈ 27.7 to 277 µM) | > 100
4 | O=c1c2ncoc2c2cc(F)c(-c3ccc(O)cc3)cc2n1C1CC1 [Compound 64, 5-cyclopropyl-8-fluoro-7-(4-hydroxyphenyl)oxazolo[4,5-c]quinolin-4-one] | < 1 | < 1 | > 100 | 10 to 100 (≈ 29.7 to 297 µM) | < 1 | 10 to 100 (≈ 29.7 to 297 µM)
5 | Cc1c(-c2ccc3nonc3c2)ccc2c3ocnc3c(=O)n(C3CC3)c12 [Compound 46, 7-(2,1,3-benzoxadiazol-5-yl)-5-cyclopropyl-6-methyl-oxazolo[4,5-c]quinolin-4-one] | < 1 | < 1 | > 100 | 10 to 100 (≈ 27.9 to 279 µM) | > 100 | 1 to 10 (≈ 2.79 to 27.9 µM)
6 | Cc1c(-c2cc(F)c(C(C)O)cc2F)ccc2c3ocnc3c(=O)n(C3CC3)c12 (stereo not drawn) [Compound 22, 5-cyclopropyl-7-[2,5-difluoro-4-(1-hydroxyethyl)phenyl]-6-methyl-oxazolo[4,5-c]quinolin-4-one] | < 1 | < 1 | 10 to 100 (≈ 25.2 to 252 µM) | 10 to 100 (≈ 25.2 to 252 µM) | 1 to 10 (≈ 2.52 to 25.2 µM) | 1 to 10 (≈ 2.52 to 25.2 µM)
7 | Cc1nc2c(=O)n(C3CC3)c3c(C)c(-c4ccc5[nH]ncc5c4)ccc3c2o1 [Compound 10, 5-cyclopropyl-7-(1H-indazol-5-yl)-2,6-dimethyl-oxazolo{4,5-c]quinolin-4-one] | < 1 | < 1 | > 100 | 10 to 100 (≈ 27 to 270 µM) | 10 to 100 (≈ 27 to 270 µM) | > 100
8 | Nc1ccc(-c2cc3c(cc2F)c2ocnc2c(=O)n3C2CC2)cc1F [Compound 71, 7-(4-amino-3-fluoro-phenyl)-5-cyclopropyl-8-fluoro-oxazolo[4,5-c]quinolin-4-one] | 1 to 10 (≈ 2.83 to 28.3 µM) | 1 to 10 (≈ 2.83 to 28.3 µM) | 10 to 100 (≈ 28.3 to 283 µM) | > 100 | < 1 | 1 to 10 (≈ 2.83 to 28.3 µM)
9 | Cc1c(-c2ccc(NCc3ccccc3)nc2)ccc2c3ocnc3c(=O)n(C3CC3)c12 [Compound 48, 7-[6-(benzylamino)pyridin-3-yl]-5-cyclopropyl-6-methyl-oxazolo[4,5-c]quinolin-4-one] | 1 to 10 (≈ 2.37 to 23.7 µM) | 1 to 10 (≈ 2.37 to 23.7 µM) | > 100 | 10 to 100 (≈ 23.7 to 237 µM) | 1 to 10 (≈ 2.37 to 23.7 µM) | 10 to 100 (≈ 23.7 to 237 µM)
10 | Cc1nc2c(=O)n(C3CC3)c3cc(N4CCC(N)C4)c(F)cc3c2o1 (stereo not drawn) [Compound 56, 7-(3-aminopyrrolidin-1-yl)-5-cyclopropyl-8-fluoro-2-methyl-oxazolo[4,5-c]quinolin-4-one] | 1 to 10 (≈ 2.92 to 29.2 µM) | 1 to 10 (≈ 2.92 to 29.2 µM) | 10 to 100 (≈ 29.2 to 292 µM) | 10 to 100 (≈ 29.2 to 292 µM) | 1 to 10 (≈ 2.92 to 29.2 µM) | 1 to 10 (≈ 2.92 to 29.2 µM)
11 | Cc1c(-c2cc(F)c(N)c(F)c2)ccc2c3ocnc3c(=O)n(C3CC3)c12 [Compound 19] | < 1 | < 1 | > 100 | 10 to 100 (≈ 27.2 to 272 µM) | 1 to 10 (≈ 2.72 to 27.2 µM) | > 100
12 | Cc1nc2c(=O)n(C3CC3)c3c(C)c(-c4ccc(C(C)(C)N)cc4)ccc3c2o1 [Compound 28, 7-[4-(2-aminopropan-2-yl)phenyl]-5-cyclopropyl-2,6-dimethyloxazolo[4,5-c]quinolin-4-one] | 10 to 100 (≈ 25.8 to 258 µM) | 1 to 10 (≈ 2.58 to 25.8 µM) | 10 to 100 (≈ 25.8 to 258 µM) | 10 to 100 (≈ 25.8 to 258 µM) | 1 to 10 (≈ 2.58 to 25.8 µM) | 10 to 100 (≈ 25.8 to 258 µM)
13 | Cc1c(-c2ccc(N)cc2)ccc2c3ocnc3c(=O)n(C3CC3)c12 [Compound 40, 7-(4-aminophenyl)-5-cyclopropyl-6-methyl-oxazolo[4,5-c]quinolin-4-one] | < 1 | < 1 | > 100 | > 100 | 1 to 10 (≈ 3.02 to 30.2 µM) | 1 to 10 (≈ 3.02 to 30.2 µM)
14 | Cc1nc2c(=O)n(C3CC3)c3c(C)c(-c4ccc(C(=O)O)cc4)ccc3c2o1 [Compound 8, 4-(5-cyclopropyl-2,6-dimethyl-4-oxo-oxazolo[4,5-c]quinolin-7-yl)benzoic acid] | 10 to 100 (≈ 26.7 to 267 µM) | > 100 | > 100 | > 100 | 1 to 10 (≈ 2.67 to 26.7 µM) | > 100
15 | Cc1nc2c(=O)n(C3CC3)c3cc(N4CCC(C)(N)CC4)c(F)cc3c2o1 [Compound 55, 7-(4-amino-4-methylpiperidin-1-yl)-5-cyclopropyl-8-fluoro-2-methyl-oxazolo[4,5-c]quinolin-4-one] | 1 to 10 (≈ 2.7 to 27 µM) | 1 to 10 (≈ 2.7 to 27 µM) | > 100 | > 100 | 1 to 10 (≈ 2.7 to 27 µM) | 10 to 100 (≈ 27 to 270 µM)
16 | Cc1nc2c(=O)n(C3CC3)c3c(C)c(-c4cc(F)c(C#N)cc4F)ccc3c2o1 [Compound 24] | < 1 | < 1 | > 100 | > 100 | 1 to 10 (≈ 2.56 to 25.6 µM) | 10 to 100 (≈ 25.6 to 256 µM)
17 | Cc1nc2c(=O)n(C3CC3)c3cc(N4CC[C@@H](C(C)(C)N)C4)c(F)cc3c2o1 [Compound 50, 7-[(3R)-3-(2-aminopropan-2-yl)pyrrolidin-1-yl]-5-cyclopropyl-8-fluoro-2-methyl-oxazolo[4,5-c]quinolin-4-one] | 1 to 10 (≈ 2.6 to 26 µM) | 1 to 10 (≈ 2.6 to 26 µM) | > 100 | 10 to 100 (≈ 26 to 260 µM) | 10 to 100 (≈ 26 to 260 µM) | 1 to 10 (≈ 2.6 to 26 µM)
18 | Cc1nc2c(=O)n(C3CC3)c3cc(-c4cc(F)c(N)cc4F)c(F)cc3c2o1 [Compound 79, 7-(4-amino-2,5-difluoro-phenyl)-5-cyclopropyl-8-fluoro-2-methyl-oxazolo[4,5-c]quinolin-4-one] | < 1 | < 1 | > 100 | 10 to 100 (≈ 26 to 260 µM) | < 1 | 10 to 100 (≈ 26 to 260 µM)
19 | NC(=O)c1ccc(-c2cc3c(cc2F)c2ocnc2c(=O)n3C2CC2)cc1 [Compound 58, 4-(5-cyclopropyl-8-fluoro-4-oxo-oxazolo[4,5-c]quinolin-7-yl)benzamide] | 1 to 10 (≈ 2.75 to 27.5 µM) | 1 to 10 (≈ 2.75 to 27.5 µM) | > 100 | 10 to 100 (≈ 27.5 to 275 µM) | 1 to 10 (≈ 2.75 to 27.5 µM) | 10 to 100 (≈ 27.5 to 275 µM)
20 | Cc1nc2c(=O)n(C3CC3)c3c(C)c(-c4ccc(C#N)cc4F)ccc3c2o1 [Compound 33, 4-(5-cyclopropyl-2,6-dimethyl-4-oxo-oxazolo[4,5-c]quinolin-7-yl)-3-fluoro-benzonitrile] | < 1 | < 1 | > 100 | 10 to 100 (≈ 26.8 to 268 µM) | 10 to 100 (≈ 26.8 to 268 µM) | > 100
21 | Cc1nc2c(=O)n(C3CC3)c3c(C)c(-c4ccc(CN)cc4)ccc3c2o1 [Compound 9, 7-[4-{aminomethyl)phenyl]-5-cyclopropyl-2,6-dimethyl-oxazolo[4,5-c]quinolin-4-one] | < 1 | < 1 | > 100 | 10 to 100 (≈ 27.8 to 278 µM) | 1 to 10 (≈ 2.78 to 27.8 µM) | 1 to 10 (≈ 2.78 to 27.8 µM)
22 | Cc1c(-c2ccc(N)cc2F)ccc2c3ocnc3c(=O)n(C3CC3)c12 [Compound 5, 7-(4-amino-2-fluoro-phenyl)-5-cyclopropyl-6-methyl-oxazolo[4,5-c]quinolin-4-one] | < 1 | < 1 | > 100 | 10 to 100 (≈ 28.6 to 286 µM) | < 1 | 1 to 10 (≈ 2.86 to 28.6 µM)
23 | NCC1CCN(c2nc3c(cc2F)c2ocnc2c(=O)n3C2CC2)C1 (stereo not drawn) [Compound 81, 7-[3-(aminomethyl)pyrrolidin-1-yl]-5-cyclopropyl-8-fluoro-oxazolo[4,5-c][1,8]naphthyridin-4-one] | 1 to 10 (≈ 2.91 to 29.1 µM) | 1 to 10 (≈ 2.91 to 29.1 µM) | > 100 | > 100 | 1 to 10 (≈ 2.91 to 29.1 µM) | 1 to 10 (≈ 2.91 to 29.1 µM)
24 | Cc1nc2c(=O)n(C3CC3)c3c(C)c(-c4cn[nH]c4)ccc3c2o1 [Compound 29, 5-cyclopropyl-2,6-dimethyl-7-(1H-pyrazol-4-yl)oxazolo[4,5-c]quinolin-4-one] | 1 to 10 (≈ 3.12 to 31.2 µM) | 1 to 10 (≈ 3.12 to 31.2 µM) | > 100 | > 100 | 1 to 10 (≈ 3.12 to 31.2 µM) | 10 to 100 (≈ 31.2 to 312 µM)

Source: patent US10385065B2, “Antibacterial compounds” (priority 2014, dated 2019)
